From patent US7935674B2, “Indole derivatives” (Mitsubishi Tanabe Pharma Corporation, priority 2005, dated 2011)
Like-named read-outs stand apart in the source and are kept apart here.

Tests used:
[1] = tested on: Sprague-Dawley (SD) rats; assay: Urinary glucose excretion test in rats; type: in vivo, rat; details: male SD rats; 30 mg/kg by oral gavage; urine collected for 24 hours; daily amount of glucose excreted in urine per individual
Method: 2. Urinary Glucose Excretion Test in Rats Test Compounds:
Compounds described in the above examples were used for the Urinary glucose excretion test in rats.
6-week-old male Sprague-Dawley (SD) rats were housed in individual metabolic cages with free access to food and water from 2 days prior to the experiment. On the morning of the experiment, rats were administered vehicle (0.2% carboxymethyl cellulose solution containing 0.2% Tween80) or test compounds (30 mg/kg) by oral gavage at a volume of 10 ml/kg. Then, urine of the rat was collected for 24 hours, and the urine volume was measured. Subsequently, the glucose concentration in urine was quantified using the enzymatic assay kit and the daily amount of glucose excreted in urine per individual was calculated.

[2] = target: T1, human SGLT2 (Homo sapiens, UniProt P31639); assay: Assay for SGLT2 inhibition (14C-AMG uptake in CHOK1 cells expressing human SGLT2); type: cell-based
T1 construct: expressed in transfected cells; host or cells: CHOK1 (Chinese hamster ovary) cells, kept under Geneticin selection
T1 sequence (P31639 1-672): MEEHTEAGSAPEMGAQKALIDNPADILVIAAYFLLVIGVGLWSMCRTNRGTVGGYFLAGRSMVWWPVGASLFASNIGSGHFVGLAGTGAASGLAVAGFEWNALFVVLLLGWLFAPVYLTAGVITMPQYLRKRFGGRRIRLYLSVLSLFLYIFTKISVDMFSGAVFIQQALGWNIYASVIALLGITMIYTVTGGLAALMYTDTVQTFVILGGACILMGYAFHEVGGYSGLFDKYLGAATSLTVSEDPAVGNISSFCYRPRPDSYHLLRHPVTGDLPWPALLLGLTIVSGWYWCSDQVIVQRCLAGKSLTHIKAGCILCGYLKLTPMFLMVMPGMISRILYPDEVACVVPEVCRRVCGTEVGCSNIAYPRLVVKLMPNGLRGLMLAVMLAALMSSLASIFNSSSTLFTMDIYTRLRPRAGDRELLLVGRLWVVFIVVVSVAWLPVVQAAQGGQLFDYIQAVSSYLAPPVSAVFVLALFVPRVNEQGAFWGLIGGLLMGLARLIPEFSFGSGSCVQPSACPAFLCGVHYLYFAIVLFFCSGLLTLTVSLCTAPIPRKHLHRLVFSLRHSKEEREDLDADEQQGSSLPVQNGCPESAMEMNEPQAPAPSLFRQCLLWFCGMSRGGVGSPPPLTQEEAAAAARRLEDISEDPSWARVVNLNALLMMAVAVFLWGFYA
Method: 1. Assay for SGLT2 Inhibition
Compounds described in the above examples were used for the SGLT2 inhibition assay.
CHOK1 cells expressing human SGLT2 were seeded in 24-well plates at a density of 400,000 cells/well in F-12 nutrient mixture (Ham's F-12) containing 10% fetal bovine serum, 400 μg/ml Geneticin, 50 units/ml sodium penicillin G (Gibco-BRL) and 50 μg/ml streptomycin sulfate. After 2 days of culture at 37° C. in a humidified atmosphere containing 5% CO2, cells were washed once with the assay buffer (137 mM NaCl, 5 mM KCl, 1 mM CaCl2, 1 mM MgCl2, 50 mM Hepes, and 20 mM Tris, pH 7.4) and incubated with 250 μl of the buffer containing test compounds for 10 min at 37° C. Test compounds were dissolved in DMSO. The final concentration of DMSO was 0.5%. The transport reaction was initiated by addition of 50 μl [^14C]-methyl-α-D-glucopyranoside (^14C-AMG) solution (final concentration, 0.5 mM). After incubation for 2 hours at 37° C., the uptake was stopped by aspiration of the incubation mixture, the cells were washed three times with ice-cold PBS. Then, cells were solubilized with 0.3 N NaOH and aliquots were taken for determination of radioactivity by a liquid scintillation counter. Nonspecific AMG uptake was defined as that which occurred in the presence of 100 μM of phlorizin, a specific inhibitor of sodium-dependent glucose cotransporter. Specific uptake was normalized for the protein concentrations measured by the method of Bradford. The 50% inhibitory concentration (IC50) values were calculated from dose-response curves by least square method.

[3] = CHOK1 cells expressing human SGLT2, 14C-AMG uptake, 0.5 mM, 2 hours at 37° C., read-out: IC50

Compound: OC[C@H]1O[C@@H](n2cc(Cc3ccc4occc4c3)c3c(Cl)cc(Cl)cc32)[C@H](O)[C@@H](O)[C@@H]1O [Example 32, 3-(Benzo[b]furan-5-yl-methyl)-4,6-dichloro-1-(β-D-gluco-pyranosyl)indole]
- Urinary glucose [1]: B (2400 mg>B≧2000 mg)
- IC50 [2, 3]: 7.5 nM

Compound: OC[C@H]1O[C@@H](n2cc(Cc3ccc4occc4c3)c3c(Cl)c(F)ccc32)[C@H](O)[C@@H](O)[C@@H]1O [Example 34, 3-(Benzo[b]furan-5-yl-methyl)-4-chloro-5-fluoro-1-(β-D-gluco-pyranosyl)indole]
- Urinary glucose [1]: B (2400 mg>B≧2000 mg)
- IC50 [2, 3]: 11 nM

Compound: CCOc1ccc(Cc2cn([C@@H]3O[C@H](CO)[C@@H](O)[C@H](O)[C@H]3O)c3cc(Cl)cc(Cl)c23)cc1 [Example 28, 4,6-Dichloro-3-(4-ethoxyphenylmethyl)-1-(β-D-glucopyranosyl)-indole]
- Urinary glucose [1]: B (2400 mg>B≧2000 mg)
- IC50 [2, 3]: 3.2 nM

Compound: OC[C@H]1O[C@@H](n2cc(Cc3ccc4occc4c3)c3c(F)cccc32)[C@H](O)[C@@H](O)[C@@H]1O [Example 20, 3-(Benzo[b]furan-5-yl-methyl)-4-fluoro-1-(β-D-glucopyranosyl) indole]
- Urinary glucose [1]: A (A≧2400 mg)
- IC50 [2, 3]: 5.7 nM

Compound: CCOc1ccc(Cc2cn([C@@H]3O[C@H](CO)[C@@H](O)[C@H](O)[C@H]3O)c3cccc(Cl)c23)cc1 [Example 3, 4-Chloro-3-(4-ethoxyphenylmethyl)-1-(β-D-glucopyranosyl)-indole]
- Urinary glucose [1]: B (2400 mg>B≧2000 mg)
- IC50 [2, 3]: 3.5 nM

Compound: OC[C@H]1O[C@@H](n2cc(Cc3ccc(I)cc3)c3c(Cl)cccc32)[C@H](O)[C@@H](O)[C@@H]1O [Example 33, 4-Chloro-3-(4-iodophenylmethyl)-1-(β-D-glucopyranosyl)-indole]
- Urinary glucose [1]: A (A≧2400 mg)
- IC50 [2, 3]: 4.1 nM

Compound: OC[C@H]1O[C@@H](n2cc(Cc3ccc4occc4c3)c3c(Br)cccc32)[C@H](O)[C@@H](O)[C@@H]1O [Example 43, 3-(Benzo[b]furan-5-yl-methyl)-4-bromo-1-(β-D-glucopyranosyl)-indole]
- Urinary glucose [1]: A (A≧2400 mg)
- IC50 [2, 3]: 8.4 nM

Compound: OC[C@H]1O[C@@H](n2cc(Cc3ccc(I)cc3)c3c(Cl)cc(Cl)cc32)[C@H](O)[C@@H](O)[C@@H]1O [Example 36, 4,6-Dichloro-3-(4-iodophenylmethyl)-1-(β-D-glucopyranosyl)-indole]
- Urinary glucose [1]: B (2400 mg>B≧2000 mg)
- IC50 [2, 3]: 14 nM

Compound: OC[C@H]1O[C@@H](n2cc(Cc3ccc(Cl)cc3)c3c(Br)cccc32)[C@H](O)[C@@H](O)[C@@H]1O [Example 44, 4-Bromo-3-(4-chlorophenylmethyl)-1-(β-D-glucopyranosyl)indole]
- Urinary glucose [1]: B (2400 mg>B≧2000 mg)
- IC50 [2, 3]: 20 nM

Compound: OC[C@H]1O[C@@H](n2cc(Cc3ccc(Br)s3)c3c(Cl)cccc32)[C@H](O)[C@@H](O)[C@@H]1O [Example 7, 3-(5-Bromo-2-thienylmethyl)-4-chloro-1-(β-D-glucopyranosyl)-indole]
- Urinary glucose [1]: B (2400 mg>B≧2000 mg)
- IC50 [2, 3]: 5 nM

Compound: OC[C@H]1O[C@@H](n2cc(Cc3ccc(I)cc3)c3c(Br)cccc32)[C@H](O)[C@@H](O)[C@@H]1O [Example 42, 4-Bromo-3-(4-iodophenylmethyl)-1-(β-D-glucopyranosyl)indole]
- Urinary glucose [1]: A (A≧2400 mg)
- IC50 [2, 3]: 6.1 nM

Compound: OC[C@H]1O[C@@H](n2cc(Cc3ccc4occc4c3)c3c(Cl)cccc32)[C@H](O)[C@@H](O)[C@@H]1O [Example 15, 3-(Benzo[b]furan-5-yl-methyl)-4-chloro-1-(β-D-glucopyranosyl)indole]
- Urinary glucose [1]: A (A≧2400 mg)
- IC50 [2, 3]: 3.3 nM

Compound: OC[C@H]1O[C@@H](n2cc(Cc3ccc(Br)cc3)c3c(Cl)cccc32)[C@H](O)[C@@H](O)[C@@H]1O [Example 14, 3-(4-Bromophenylmethyl)-4-chloro-1-(β-D-glucopyranosyl)-indole]
- Urinary glucose [1]: A (A≧2400 mg)
- IC50 [2, 3]: 8.1 nM

Compound: OC[C@H]1O[C@@H](n2cc(Cc3ccc(I)cc3)c3c(Cl)c(F)ccc32)[C@H](O)[C@@H](O)[C@@H]1O [Example 37, 4-Chloro-5-fluoro-3-(4-iodophenylmethyl)-1-(β-D-gluco-pyranosyl)indole]
- Urinary glucose [1]: B (2400 mg>B≧2000 mg)
- IC50 [2, 3]: 14 nM

Compound: OC[C@H]1O[C@@H](n2cc(Cc3ccc(OC(F)(F)F)cc3)c3c(Cl)cccc32)[C@H](O)[C@@H](O)[C@@H]1O [Example 29, 4-Chloro-3-(4-(trifluoromethoxy)phenylmethyl)-1-(β-D-gluco-pyranosyl)indole]
- Urinary glucose [1]: B (2400 mg>B≧2000 mg)
- IC50 [2, 3]: 9.6 nM

Compound: Cc1cccc2c1c(Cc1ccc(C3CC3)cc1)cn2[C@@H]1O[C@H](CO)[C@@H](O)[C@H](O)[C@H]1O [Example 47, 3-(4-Cyclopropylphenylmethyl)-4-methyl-1-(β-D-gluco-pyranosyl)indole]
- Urinary glucose [1]: A (A≧2400 mg)
- IC50 [2]: 1.6 nM

Compound: Cc1cccc2c1c(Cc1ccc(I)cc1)cn2[C@@H]1O[C@H](CO)[C@@H](O)[C@H](O)[C@H]1O [Example 39, 3-(4-Iodophenylmethyl)-4-methyl-1-(β-D-glucopyranosyl)indole]
- Urinary glucose [1]: B (2400 mg>B≧2000 mg)
- IC50 [2, 3]: 3.6 nM

Compound: OC[C@H]1O[C@@H](n2cc(Cc3ccc(C(F)F)cc3)c3c(F)cccc32)[C@H](O)[C@@H](O)[C@@H]1O [Example 25, 3-(4-(Difluoromethyl)phenylmethyl)-4-fluoro-1-(β-D-gluco-pyranosyl)indole]
- Urinary glucose [1]: B (2400 mg>B≧2000 mg)
- IC50 [2, 3]: 11 nM

Compound: CCc1ccc(Cc2cn([C@@H]3O[C@H](CO)[C@@H](O)[C@H](O)[C@H]3O)c3cccc(F)c23)s1 [Example 18, 3-(5-Ethylthiophen-2-yl-methyl)-4-fluoro-1-(β-D-gluco-pyranosyl)indole]
- Urinary glucose [1]: B (2400 mg>B≧2000 mg)
- IC50 [2, 3]: 4.1 nM

Compound: CCc1ccc(Cc2cn([C@@H]3O[C@H](CO)[C@@H](O)[C@H](O)[C@H]3O)c3cccc(F)c23)cc1 [Example 2, 3-(4-Ethylphenylmethyl)-4-fluoro-1-(β-D-glucopyranosyl)-indole]
- Urinary glucose [1]: A (A≧2400 mg)
- IC50 [2, 3]: 5.2 nM

Compound: OC[C@H]1O[C@@H](n2cc(Cc3ccc(OC(F)F)cc3)c3c(F)cccc32)[C@H](O)[C@@H](O)[C@@H]1O [Example 26, 3-(4-(Difluoromethoxy)phenylmethyl)-4-fluoro-1-(β-D-gluco-pyranosyl)indole]
- Urinary glucose [1]: A (A≧2400 mg)
- IC50 [2, 3]: 11 nM

Compound: CCOc1ccc(Cc2cn([C@@H]3O[C@H](CO)[C@@H](O)[C@H](O)[C@H]3O)c3cccc(F)c23)cc1 [Example 8, 3-(4-Ethoxyphenylmethyl)-4-fluoro-1-(β-D-glucopyranosyl)-indole]
- Urinary glucose [1]: A (A≧2400 mg)
- IC50 [2, 3]: 4.8 nM

Compound: OC[C@H]1O[C@@H](n2cc(Cc3ccc(Cl)cc3)c3c(Cl)cccc32)[C@H](O)[C@@H](O)[C@@H]1O [Example 6, 4-Chloro-3-(4-chlorophenylmethyl)-1-(β-D-glucopyranosyl)-indole]
- Urinary glucose [1]: A (A≧2400 mg)
- IC50 [2, 3]: 9.8 nM

Compound: OC[C@H]1O[C@@H](n2cc(Cc3ccc(Br)cc3)c3c(Br)cccc32)[C@H](O)[C@@H](O)[C@@H]1O [Example 41, 4-Bromo-3-(4-bromophenylmethyl)-1-(β-D-glucopyranosyl)indole]
- Urinary glucose [1]: B (2400 mg>B≧2000 mg)
- IC50 [2, 3]: 12 nM
